Data reported in PubChem BioAssay AID2060486 (Molecular Pharmacology Branch, DTP, NCI, 2025).
pIC50: −log10 of the molar value.

Test system: IGROV1 complex spheroids (HUVEC, MSC), viability % test/control
Assay: Anticancer human tumor IGROV1 cell line growth inhibition [GQUAD];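 note: spheroids exposed to compounds for 7 days before readout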
Conditions: for pIC50: curve of first compound; for viability, T/C: stronger effect = lower value
Description: DNA G-quadruplex Stabilizer Agents in Combinations in Complex Spheroids
A high-throughput screen of multi-cell type tumor spheroids was designed to identify active combinations of DNA G-quadruplex stabilizer agents and targeted small molecules. Complex spheroids include a stromal component modeled by human endothelial cells (HUVEC) and fibroblasts modeled by human mesenchymal stem cells (MSCs). The concentration ranges selected for each drug and investigational agent were based upon clinically achievable concentrations if the clinical Cmax of the agent was known.
Compounds. The drugs and investigational agents: pidnarulex (CX-5461; NSC782164), APTO-253 (NSC789042), BRACO-19 (NSC847499), peposertib (NSC802822), ceralasertib (NSC780249), elimusertib (NSC800525), camonsertib (NSC841442), AZD-1390 (NSC803789), olaparib (NSC753686), talazoparib (NSC767125), ART-558 (NSC835418), sotorasib (NSC818433), MRTX-1133 (NSC836407), SN-38 (NSC673596), topotecan (NSC609699), etoposide (NSC141540), doxorubicin (NSC123127), gemcitabine (NSC613327), 5-fluorouracil (NSC19893), paclitaxel (NSC125973), vemurafenib (NSC761431), panobinostat (NSC761190), R-306465 (JNJ-16241199; NSC773264), adavosertib (NSC754352), TP-3654 (NSC805149), carboplatin (NSC241240), KSQ-4279 (NSC840948), and staurosporine (NSC755774) were obtained from the National Cancer Institute (NCI) Developmental Therapeutics Program Chemical Repository (34). The FDA-approved anticancer drug set is available from the NCI Developmental Therapeutics Program. […] The stock solutions were prepared in dimethyl sulfoxide (DMSO, Sigma-Aldrich, St. Louis, MO, cat. D2650) at 800-fold the tested concentration and stored at -70 degrees C prior to their use. All drugs and investigational agents were tested over a range starting from a high concentration at or near the clinical Cmax and decreasing in half-log increments. If the clinical Cmax for an agent had not been determined, the highest concentration tested was 10 microM.
2.3 Cell Culture. All cells were maintained in an incubator at 37 degrees C and 5% CO2 with 95% humidity. The PDC lines were cultured according to standard operating procedures established by the NCI PDMR. All PDCs were thawed and cultured in Matrigel-coated flasks prepared with a working solution of 1X Ham's F-12 nutrient mix, without supplementation (Invitrogen, cat. 11765054), 100 U/mL penicillin-streptomycin (Invitrogen, cat. 15140122), and 2.5% Matrigel (Corning Inc., cat. 354248) for the first three passages. The 857933-349-R-J2-PDC line was cultured in 6C/Colon 1B media, which includes advanced DMEM/F-12 (Thermo Fisher Scientific, cat. 12634028), 10 mM HEPES (Thermo Fisher Scientific, cat. 15630080), 1X GlutaMAX supplement (Thermo Fisher Scientific, cat. 35050061), 0.1 mg/mL primocin (InvivoGen, cat. ant-pm-2), 10% defined fetal bovine serum, heat inactivated (HyClone Laboratories Inc., cat. SH30070.03HI), 50% L-WRN conditioned media (ATCC, cat. CRL-3276), 1.25 mM N-Acetyl-L-cysteine (Sigma-Aldrich, cat. A9165), 10 mM nicotinamide (Sigma-Aldrich, cat. N0636), 1X B-27 supplement (Thermo Fisher Scientific, cat. 17504044), 1X N-2 supplement (Thermo Fisher Scientific, cat. 17502048), 10 microM Y-27632 dihydrochloride (Tocris Bioscience, cat. 1254), and 50 ng/mL human EGF recombinant protein (Thermo Fisher Scientific, cat. PHG0311). The 485176-168-R4-J1-PDC line was cultured in Panc media, which includes all 6C/Colon 1B media components plus 100 ng/mL human FGF-10 (Thermo Fisher Scientific, cat. 100-26), 500 nM SB-431542 (Selleckchem, cat. S1067), and gastrin (Tocris, cat. 3006).
[…]

[1] = second compound 0.0316 µM, first compound 0.0316 µM
[2] = second compound 0.0316 µM, first compound 0.1 µM
[3] = second compound 0.0316 µM, first compound 0.316 µM
[4] = second compound 0.0316 µM, first compound 1 µM
[5] = second compound 0.0316 µM, first compound 3.16 µM
[6] = second compound 0.0316 µM, first compound 10 µM
[7] = second compound 0.1 µM, first compound 0.0316 µM
[8] = second compound 0.1 µM, first compound 0.1 µM
[9] = second compound 0.1 µM, first compound 0.316 µM
[10] = second compound 0.1 µM, first compound 1 µM
[11] = second compound 0.1 µM, first compound 3.16 µM
[12] = second compound 0.1 µM, first compound 10 µM
[13] = second compound 0.316 µM, first compound 0.0316 µM
[14] = second compound 0.316 µM, first compound 0.1 µM
[15] = second compound 0.316 µM, first compound 0.316 µM
[16] = second compound 0.316 µM, first compound 1 µM
[17] = second compound 0.316 µM, first compound 3.16 µM
[18] = second compound 0.316 µM, first compound 10 µM
[19] = second compound 1 µM, first compound 0.0316 µM
[20] = second compound 1 µM, first compound 0.1 µM
[21] = second compound 1 µM, first compound 0.316 µM
[22] = second compound 1 µM, first compound 1 µM
[23] = second compound 1 µM, first compound 3.16 µM
[24] = second compound 1 µM, first compound 10 µM
[25] = second compound 3.16 µM, first compound 0.0316 µM
[26] = second compound 3.16 µM, first compound 0.1 µM
[27] = second compound 3.16 µM, first compound 0.316 µM
[28] = second compound 3.16 µM, first compound 1 µM
[29] = second compound 3.16 µM, first compound 3.16 µM
[30] = second compound 3.16 µM, first compound 10 µM
[31] = second compound 10 µM, first compound 0.0316 µM
[32] = second compound 10 µM, first compound 0.1 µM
[33] = second compound 10 µM, first compound 0.316 µM
[34] = second compound 10 µM, first compound 1 µM
[35] = second compound 10 µM, first compound 3.16 µM
[36] = second compound 10 µM, first compound 10 µM

## COc1ccc([C@@H](O)c2cc(-c3ncnc4cc(N5CCOCC5)ccc34)c(F)cc2Cl)nn1 + Cc1[nH]c2ccc(F)cc2c1-c1nc2c3cccnc3c3ncccc3c2[nH]1
Second compound 0.0316 µM
  pIC50: 6.10
Second compound 0.1 µM
  pIC50: 6.09
Second compound 0.316 µM
  pIC50: 6.12
Second compound 1 µM
  pIC50: > 7.50
Second compound 3.16 µM
  pIC50: > 7.50
Second compound 10 µM
  pIC50: > 7.50
[1]
  viability, T/C: 92%
[2]
  viability, T/C: 76.5%
[3]
  viability, T/C: 86.5%
[4]
  viability, T/C: 40.7%
[5]
  viability, T/C: 21.9%
[6]
  viability, T/C: 6.2%
[7]
  viability, T/C: 92.2%
[8]
  viability, T/C: 89.6%
[9]
  viability, T/C: 91.5%
[10]
  viability, T/C: 40.6%
[11]
  viability, T/C: 19.5%
[12]
  viability, T/C: 5.14%
[13]
  viability, T/C: 66.3%
[14]
  viability, T/C: 83.1%
[15]
  viability, T/C: 82.6%
[16]
  viability, T/C: 41.5%
[17]
  viability, T/C: 12.3%
[18]
  viability, T/C: 4.85%
[19]
  viability, T/C: 3.85%
[20]
  viability, T/C: 4.89%
[21]
  viability, T/C: 4.79%
[22]
  viability, T/C: 4.97%
[23]
  viability, T/C: 4%
[24]
  viability, T/C: 5.1%
[25]
  viability, T/C: 3.89%
[26]
  viability, T/C: 4.57%
[27]
  viability, T/C: 3.71%
[28]
  viability, T/C: 4.88%
[29]
  viability, T/C: 3.87%
[30]
  viability, T/C: 3.46%
[31]
  viability, T/C: 3.68%
[32]
  viability, T/C: 3.5%
[33]
  viability, T/C: 4.28%
[34]
  viability, T/C: 4.13%
[35]
  viability, T/C: 5.35%
[36]
  viability, T/C: 3.84%

## C#Cc1c(F)ccc2cc(O)cc(-c3ncc4c(N5CC6CCC(C5)N6)nc(OCC56CCCN5CC(F)C6)nc4c3F)c12 (centres undefined) + Cc1cnc(CNC(=O)c2c(=O)c3ccc(N4CCCN(C)CC4)nc3n3c2sc2ccccc23)cn1
Second compound 0.0316 µM
  pIC50: 5.55
Second compound 0.1 µM
  pIC50: > 7.50
Second compound 0.316 µM
  pIC50: > 7.50
Second compound 1 µM
  pIC50: > 7.50
Second compound 3.16 µM
  pIC50: > 7.50
Second compound 10 µM
  pIC50: > 7.50
[1]
  viability, T/C: 70%
[2]
  viability, T/C: 67.6%
[3]
  viability, T/C: 58.5%
[4]
  viability, T/C: 56.4%
[5]
  viability, T/C: 47.6%
[6]
  viability, T/C: 45.3%
[7]
  viability, T/C: 40.6%
[8]
  viability, T/C: 41.9%
[9]
  viability, T/C: 36.5%
[10]
  viability, T/C: 27.3%
[11]
  viability, T/C: 35.8%
[12]
  viability, T/C: 17.3%
[13]
  viability, T/C: 21.4%
[14]
  viability, T/C: 21.5%
[15]
  viability, T/C: 20.7%
[16]
  viability, T/C: 24.7%
[17]
  viability, T/C: 18.3%
[18]
  viability, T/C: 15.1%
[19]
  viability, T/C: 16.7%
[20]
  viability, T/C: 16.4%
[21]
  viability, T/C: 11.1%
[22]
  viability, T/C: 13.3%
[23]
  viability, T/C: 14.5%
[24]
  viability, T/C: 7.91%
[25]
  viability, T/C: 9.65%
[26]
  viability, T/C: 9.22%
[27]
  viability, T/C: 8.28%
[28]
  viability, T/C: 10.1%
[29]
  viability, T/C: 10%
[30]
  viability, T/C: 6.58%
[31]
  viability, T/C: 7.28%
[32]
  viability, T/C: 7.39%
[33]
  viability, T/C: 9.03%
[34]
  viability, T/C: 8.87%
[35]
  viability, T/C: 8.84%
[36]
  viability, T/C: 7.64%
